Values of other authors as cited in US20050277626A1, “Methods and compositions for treatment of nicotine dependence and dementias” (priority 2004, published 2005).

Columns and labels:
[1] = schizophrenic patients
[2] = 400 mg per day

COc1ccc2c3c1O[C@H]1C[C@@H](O)C=C[C@@]31CCN(C)C2 [galantamine]
apoptosis induced by beta-amyloid and thapsigargin (neuroblastoma cell lines): inhibit apoptosis induced by beta-amyloid and thapsigargin in a concentration dependent manner

COc1cc2c(cc1OC)C(=O)C(CC1CCN(Cc3ccccc3)CC1)C2 (stereo not shown) [donepazil]
cognitive effect, blinded placebo controlled study [1]: no effect
cognitive effect, open label studies [1]: modest cognitive improvements

O=C(NCCN1CCOCC1)c1ccc(Cl)cc1 [moclobemide]
efficacy for smoking cessation [2]: demonstrated efficacy
